# Results as given in patent US9035052B2, “Compositions of azimilide dihydrochloride” (WARNER CHILCOTT COMPANY, LLC, priority 2006, dated 2015).
# Legend:
# [1] = Apparent water solubility and dissolution of the solid state forms
# [2] = Stability / water uptake of the solid state forms on exposure to relative humidity; format: physicochemical
structure (smiles),measurement,setting,value
"CN1CCN(CCCCN2C(=O)CN(/N=C/c3ccc(-c4ccc(Cl)cc4)o3)C2=O)CC1.Cl.Cl [isopropanol solvate, (E)-1-[[[5-(4-chlorophenyl)-2-furanyl]methylene]amino]-3-[4-(4-methyl-1-piperazinyl)butyl]-2,4-imidazolidinedione dihydrochloride]",apparent water solubility,"[1]; water, room temperature, dihydrochloride",220 mg/mL
same,solid form conversion on humidity exposure,[2]; 85% relative humidity,converts to the anhydrate form within days to weeks
same,stability upon exposure to humidity,[2]; exposure to humidity,not stable
"CN1CCN(CCCCN2C(=O)CN(/N=C/c3ccc(-c4ccc(Cl)cc4)o3)C2=O)CC1.Cl.Cl [hemi-hydrate, (E)-1-[[[5-(4-chlorophenyl)-2-furanyl]methylene]amino]-3-[4-(4-methyl-1-piperazinyl)butyl]-2,4-imidazolidinedione dihydrochloride]",dissolution rate compared with the anhydrate form,[1]; water,more rapid
same,solubility,"[1]; water, apparent water solubility, room temperature",~170 mg/mL
same,water content stability,"[2]; room temperature, relative humidity range of 12% to 85% RH",stable
"CN1CCN(CCCCN2C(=O)CN(/N=C/c3ccc(-c4ccc(Cl)cc4)o3)C2=O)CC1.Cl.Cl [anhydrate, (E)-1-[[[5-(4-chlorophenyl)-2-furanyl]methylene]amino]-3-[4-(4-methyl-1-piperazinyl)butyl]-2,4-imidazolidinedione dihydrochloride]",solubility as per the USP definition of solubility,[1],freely soluble
same,solubility,[1]; water,160 mg/mL
same,hygroscopicity (water uptake),"[2]; room temperature, 85% relative humidity, up to 4 weeks",no evidence of water uptake
